This note sets out measurements from patent publication US9296704B2, “Substituted pyrimidines as protein kinase inhibitors” (CELGENE AVILOMICS RESEARCH, INC., priority 2007, dated 2016).

Molecules are shown by their SMILES. pIC50: −log10 of the molar value.

The target in test [1] is ErbB1 (Homo sapiens, UniProt P00533). Briefly: Z'-LYTE biochemical assay, ErbB1 kinase inhibition. The gist of the method:
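Fluorescence-based coupled-enzyme Z′-LYTE format: kinase phosphorylation of a peptide substrate is read by differential protease cleavage of phosphorylated versus non-phosphorylated peptide.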

Test [2] addresses T1, EGFR (T790M/L858R) (Homo sapiens, UniProt P00533, L858R/T790M).
T1 construct: purchased BPS Bioscience 40350
The test is described as follows: Omnia continuous-read kinase assay, EGFR (T790M/L858R). The class given is biochemical. The conditions noted are these: read-out: EGFR (T790M/L858R) inhibiton. The essentials: (§1)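 Enzyme pre-incubated 30 min at 27 °C with compound, then ATP/Y12-Sox peptide added; fluorescence (ex360/em485) read continuously 60 min in 20 mM Tris pH 7.5, 5 mM MgCl2, 0.2 mM DTT. WT: 5 nM enzyme, […]; T790M/L858R: 3 nM enzyme, […]. IC50 from initial velocities, variable-slope fit.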

For test [3], the target named is ErbB2 (Homo sapiens, UniProt P04626). Briefly: Z'-LYTE biochemical assay, ErbB2 kinase inhibition. The conditions noted are these: @ 1 μM. The procedure:
(§2) Compounds of the present invention were assayed as inhibitors of one or more of ErbB1, ErbB2, and/or ErbB4 in a manner substantially similar to the method described by Invitrogen Corp (Invitrogen Corporation, 1600 Faraday Avenue, Carlsbad, Calif., CA; http://www.invitrogen.com/downloads/Z-LYTE_Brochure—1205.pdf) using the Z′-LYTE™ biochemical assay procedure or similar biochemical assay. The Z′-LYTE™ biochemical assay employs a fluorescence-based, coupled-enzyme format and is based on the differential sensitivity of phosphorylated and non-phosphorylated peptides to proteolytic cleavage.

The target of test [4] is T2, EGFR (WT) (Homo sapiens, UniProt P00533).
T2 construct: purchased Invitrogen PV3872
T2 sequence (P00533 25-1210): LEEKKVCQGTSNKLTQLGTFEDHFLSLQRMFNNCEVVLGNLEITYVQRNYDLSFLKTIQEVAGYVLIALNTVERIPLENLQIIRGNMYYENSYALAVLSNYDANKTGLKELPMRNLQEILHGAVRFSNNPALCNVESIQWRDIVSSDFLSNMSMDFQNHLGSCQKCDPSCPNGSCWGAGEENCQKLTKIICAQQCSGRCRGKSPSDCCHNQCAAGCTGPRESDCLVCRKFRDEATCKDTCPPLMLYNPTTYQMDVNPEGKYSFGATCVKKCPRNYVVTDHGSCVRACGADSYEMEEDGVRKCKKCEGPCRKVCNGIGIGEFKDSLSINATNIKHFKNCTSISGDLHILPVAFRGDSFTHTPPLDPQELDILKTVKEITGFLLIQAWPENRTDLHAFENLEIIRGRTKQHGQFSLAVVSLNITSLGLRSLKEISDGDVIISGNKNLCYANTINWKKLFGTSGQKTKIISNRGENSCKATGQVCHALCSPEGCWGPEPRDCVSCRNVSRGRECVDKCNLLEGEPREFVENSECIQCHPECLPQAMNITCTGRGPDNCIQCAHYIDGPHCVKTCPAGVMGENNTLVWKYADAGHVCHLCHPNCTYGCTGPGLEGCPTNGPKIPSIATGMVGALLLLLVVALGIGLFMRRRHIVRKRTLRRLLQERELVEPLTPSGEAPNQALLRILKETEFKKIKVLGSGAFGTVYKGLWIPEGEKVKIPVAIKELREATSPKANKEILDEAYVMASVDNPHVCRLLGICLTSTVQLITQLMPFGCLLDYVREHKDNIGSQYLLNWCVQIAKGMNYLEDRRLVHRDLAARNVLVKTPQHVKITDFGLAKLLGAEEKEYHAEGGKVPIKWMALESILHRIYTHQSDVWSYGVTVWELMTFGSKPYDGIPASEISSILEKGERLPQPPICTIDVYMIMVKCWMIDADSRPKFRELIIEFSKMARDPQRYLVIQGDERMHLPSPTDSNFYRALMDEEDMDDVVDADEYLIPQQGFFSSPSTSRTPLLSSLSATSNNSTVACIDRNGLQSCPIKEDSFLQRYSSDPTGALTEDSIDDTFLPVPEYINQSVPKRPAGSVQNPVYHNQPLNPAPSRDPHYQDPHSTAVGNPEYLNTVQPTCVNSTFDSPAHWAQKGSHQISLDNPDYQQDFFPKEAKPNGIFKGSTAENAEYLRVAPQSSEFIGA
The test is described as follows: Omnia continuous-read kinase assay, EGFR (WT). Type of test: biochemical. The conditions noted are these: read-out: EGFR inhibtion. The essentials:
as §1

The target of test [5] is BTK (Homo sapiens, UniProt Q06187). The test is described as follows: Omnia assay for potency against BTK. Type of test: biochemical. The conditions noted are these: read-out: BTK Inhibition. The gist of the method:
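BTK (5 nM) was pre-incubated 30 min at 27° C with serially diluted compounds in Tris pH 7.5/MgCl2 buffer, then started with […] and Y5-Sox peptide 10 mM (ATP KMapp ~36 mM). Fluorescence (ex360/em485) was read continuously over 60 min. IC50 came from initial velocities using a variable-slope fit.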

The test system of test [6] is BTK signaling in Ramos cells. The test is described as follows: BTK Ramos cellular assay (PLCγ2 phosphorylation). The class given is cell-based. The conditions noted are these: Homo sapiens; Ramos cells, PLCγ2 phosphorylation; read-out: BTK Inhibition. The procedure:
Compounds 1-13 and (I-52) were assayed in Ramos human Burkitt lymphoma cells. Ramos cells were grown in suspension in T225 flasks, spun down, resuspended in 50 mls serum-free media and incubated for 1 hour. Compound was added to Ramos cells in serum free media to a final concentration of 1, 0.1, 0.01, or 0.001 μM. Ramos cells were incubated with compound for 1 hour, washed again and resuspended in 100 ul serum-free media. Cells were then stimulated with 1 μg of goat F(ab′)2 Anti-Human IgM and incubated on ice for 10 minutes to activate B cell receptor signaling pathways. After 10 minutes, the cells were washed once with PBS and then lysed on ice with Invitrogen Cell Extraction buffer. 16 μg total protein from lysates was loaded on gels and blots were probed for phosphorylation of the BTK substrate PLCγ2. […] Additional dose response inhibition of BTK signaling with I-13 is depicted in FIG. 9.

Test [7] has as its target ErbB4 (Homo sapiens, UniProt Q15303). The test is described as follows: Z'-LYTE biochemical assay, ErbB4 kinase inhibition. The conditions noted are these: @ 1 μM. As for the experimental part:
as §2

The target in test [8] is T3, JAK3 (Homo sapiens, UniProt P52333).
T3 sequence (P52333 1-1124): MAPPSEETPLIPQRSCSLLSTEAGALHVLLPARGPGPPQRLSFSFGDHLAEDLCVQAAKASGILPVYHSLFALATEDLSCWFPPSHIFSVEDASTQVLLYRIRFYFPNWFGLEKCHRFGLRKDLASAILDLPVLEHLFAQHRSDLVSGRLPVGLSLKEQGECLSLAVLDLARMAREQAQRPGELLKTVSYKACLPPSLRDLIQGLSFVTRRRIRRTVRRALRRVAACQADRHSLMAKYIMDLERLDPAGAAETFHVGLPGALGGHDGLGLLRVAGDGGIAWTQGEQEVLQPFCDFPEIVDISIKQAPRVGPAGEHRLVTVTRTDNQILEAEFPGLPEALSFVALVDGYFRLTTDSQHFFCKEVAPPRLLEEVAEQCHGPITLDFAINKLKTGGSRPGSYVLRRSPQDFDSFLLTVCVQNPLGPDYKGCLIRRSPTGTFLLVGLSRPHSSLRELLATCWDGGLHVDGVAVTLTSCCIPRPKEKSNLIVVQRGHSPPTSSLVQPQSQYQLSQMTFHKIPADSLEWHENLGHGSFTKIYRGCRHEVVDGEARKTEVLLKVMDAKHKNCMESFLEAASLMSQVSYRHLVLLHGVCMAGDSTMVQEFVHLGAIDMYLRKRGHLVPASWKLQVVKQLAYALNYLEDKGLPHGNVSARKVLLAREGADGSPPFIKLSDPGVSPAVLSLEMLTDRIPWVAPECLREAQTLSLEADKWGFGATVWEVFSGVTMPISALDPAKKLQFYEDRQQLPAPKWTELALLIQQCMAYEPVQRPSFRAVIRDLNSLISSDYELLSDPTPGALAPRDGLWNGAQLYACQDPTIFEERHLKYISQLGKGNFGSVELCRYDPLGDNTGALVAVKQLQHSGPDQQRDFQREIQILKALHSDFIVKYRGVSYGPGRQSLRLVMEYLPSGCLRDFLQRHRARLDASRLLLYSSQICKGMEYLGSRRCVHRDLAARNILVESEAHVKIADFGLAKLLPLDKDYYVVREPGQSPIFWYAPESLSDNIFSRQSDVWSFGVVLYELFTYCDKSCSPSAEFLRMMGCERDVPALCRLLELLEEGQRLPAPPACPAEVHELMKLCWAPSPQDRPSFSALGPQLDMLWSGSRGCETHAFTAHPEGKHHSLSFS
The test is described as follows: Omnia assay for potency against JAK3. The class given is biochemical. The conditions noted are these: read-out: JAK3 Inhibition. The gist of the method: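 Continuous-read Omnia kinase assay with 5 nM JAK3, 5 μM ATP (near apparent Km) and 5 μM Y12-Sox peptide in Tris pH 7.5/MgCl2 buffer; enzyme pre-incubated with compound 30 min at 27 °C. Fluorescence (ex360/em485) read over 60 min; initial velocities fitted against inhibitor concentration to give IC50.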

The test system of test [9] is BTK in Ramos cells. The test is described as follows: Washout experiment with Ramos cells for BTK activity. The conditions noted are these: Ramos washout assay, 100 nM compound for 1 hour. The class given is cell-based, human. The procedure: Ramos cells were serum starved for one hour in RPMI media+1% glutamine at 37° C. After starvation, Ramos cells were treated with 100 nM compound diluted in serum free RPMI media for 1 hour. After compound treatment, the media was removed and cells were washed with compound-free media. Subsequently, Ramos cells were washed every 2 hours and resuspended in fresh compound-free media. Cells were collected at specified timepoints, treated with 1 ug anti-human IgM (Southern Biotech cat #2022-01) for 10 minutes on ice to induce BCR signaling and then washed in PBS. Ramos cells were then lysed in Cell Extraction Buffer (Invitrogen FNN0011) supplemented with Roche complete protease inhibitor tablets (Roche 11697498001) and phosphatase inhibitors (Roche 04 906 837 001) and 18 ug total protein lysate was loaded in each lane. Inhibition of BTK kinase activity was assayed by measuring its substrate (PLCγ2) phosphorylation by western blot with phospho-specific antibodies from Cell Signaling Technologies cat#3871. FIG. 10 depicts the results of compound I-13 in the washout experiment at 0 hour, 4 hour, 6 hour, and 8 hour time points.

In test [10] the test system is EGFR (ErbB1) in A431 human epidermoid carcinoma cells. The test is described as follows: Washout experiment for EGFR activity in A431 cells. Type of test: cell-based. The conditions noted are these: for enzyme inhibition after washout: A431 cells, 1 μM for 1 hr, EGF stimulation. The procedure: A431 human epidermoid carcinoma cells were grown in 6-well plates to 90% confluence and then incubated in serum-free media for 18 hr. Duplicate sets of cells were treated with 1 μM designated compound for 1 hr. One set of cells was then stimulated with 100 ng/ml EGF for 5 min, and extracts were made as described. The other set of cells was washed free of the compound with warmed compound-free medium, incubated for 2 hr, washed again, incubated another 2 hr, washed again, and then incubated another 2 hr washed again and incubated for additional 2 hr and then stimulated with EGF.

BTK, sequence (Q06187 whole entry): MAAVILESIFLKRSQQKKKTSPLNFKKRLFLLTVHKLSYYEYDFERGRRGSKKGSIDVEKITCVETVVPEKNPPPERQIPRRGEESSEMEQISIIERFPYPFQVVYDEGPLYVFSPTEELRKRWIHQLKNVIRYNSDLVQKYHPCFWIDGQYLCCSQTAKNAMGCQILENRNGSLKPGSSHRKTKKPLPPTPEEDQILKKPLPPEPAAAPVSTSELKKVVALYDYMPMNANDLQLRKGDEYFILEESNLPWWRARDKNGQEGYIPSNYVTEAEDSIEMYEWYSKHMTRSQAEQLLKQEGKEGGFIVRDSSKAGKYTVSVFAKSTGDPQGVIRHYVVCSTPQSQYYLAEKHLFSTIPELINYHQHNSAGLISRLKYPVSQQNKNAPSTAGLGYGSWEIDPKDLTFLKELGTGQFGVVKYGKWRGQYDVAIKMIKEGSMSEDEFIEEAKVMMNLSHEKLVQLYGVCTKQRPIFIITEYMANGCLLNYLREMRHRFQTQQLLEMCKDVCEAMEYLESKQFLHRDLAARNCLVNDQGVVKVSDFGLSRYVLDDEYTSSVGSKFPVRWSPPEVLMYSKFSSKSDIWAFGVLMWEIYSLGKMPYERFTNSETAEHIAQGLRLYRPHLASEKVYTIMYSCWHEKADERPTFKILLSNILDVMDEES
ErbB4, sequence (Q15303 26-1308): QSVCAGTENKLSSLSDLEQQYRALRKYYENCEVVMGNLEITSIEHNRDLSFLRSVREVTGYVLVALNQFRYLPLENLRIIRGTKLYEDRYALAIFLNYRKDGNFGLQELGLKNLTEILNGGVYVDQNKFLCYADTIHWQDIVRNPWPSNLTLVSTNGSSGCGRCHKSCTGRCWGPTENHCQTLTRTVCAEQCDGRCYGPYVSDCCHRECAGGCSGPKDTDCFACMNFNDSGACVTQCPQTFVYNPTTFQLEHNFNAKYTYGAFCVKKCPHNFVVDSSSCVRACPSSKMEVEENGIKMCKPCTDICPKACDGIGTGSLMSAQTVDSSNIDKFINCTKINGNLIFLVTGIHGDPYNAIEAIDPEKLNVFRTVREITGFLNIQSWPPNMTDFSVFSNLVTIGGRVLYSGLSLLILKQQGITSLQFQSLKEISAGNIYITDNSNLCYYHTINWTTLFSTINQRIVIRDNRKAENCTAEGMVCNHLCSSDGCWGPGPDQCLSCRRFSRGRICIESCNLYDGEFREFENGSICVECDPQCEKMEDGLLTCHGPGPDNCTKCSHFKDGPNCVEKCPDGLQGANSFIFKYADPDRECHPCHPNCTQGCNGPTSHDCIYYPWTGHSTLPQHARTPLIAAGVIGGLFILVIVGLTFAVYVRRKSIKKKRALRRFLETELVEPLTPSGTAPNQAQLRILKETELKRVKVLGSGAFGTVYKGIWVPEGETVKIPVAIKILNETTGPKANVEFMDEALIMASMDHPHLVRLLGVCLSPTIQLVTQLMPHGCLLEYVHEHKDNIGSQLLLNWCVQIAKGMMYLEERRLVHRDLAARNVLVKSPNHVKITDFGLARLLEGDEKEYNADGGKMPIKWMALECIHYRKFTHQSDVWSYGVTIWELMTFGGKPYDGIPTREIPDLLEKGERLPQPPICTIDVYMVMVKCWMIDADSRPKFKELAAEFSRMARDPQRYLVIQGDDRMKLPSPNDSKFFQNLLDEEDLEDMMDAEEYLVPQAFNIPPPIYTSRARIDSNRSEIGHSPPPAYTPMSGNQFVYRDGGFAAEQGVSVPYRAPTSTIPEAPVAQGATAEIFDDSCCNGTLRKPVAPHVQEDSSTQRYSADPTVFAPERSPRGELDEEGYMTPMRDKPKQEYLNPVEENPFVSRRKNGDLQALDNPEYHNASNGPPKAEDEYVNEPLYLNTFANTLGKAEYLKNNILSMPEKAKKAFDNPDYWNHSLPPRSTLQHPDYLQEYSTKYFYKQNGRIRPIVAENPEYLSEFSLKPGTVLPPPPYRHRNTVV
T1 sequence (P00533 25-1210 T790M/L858R): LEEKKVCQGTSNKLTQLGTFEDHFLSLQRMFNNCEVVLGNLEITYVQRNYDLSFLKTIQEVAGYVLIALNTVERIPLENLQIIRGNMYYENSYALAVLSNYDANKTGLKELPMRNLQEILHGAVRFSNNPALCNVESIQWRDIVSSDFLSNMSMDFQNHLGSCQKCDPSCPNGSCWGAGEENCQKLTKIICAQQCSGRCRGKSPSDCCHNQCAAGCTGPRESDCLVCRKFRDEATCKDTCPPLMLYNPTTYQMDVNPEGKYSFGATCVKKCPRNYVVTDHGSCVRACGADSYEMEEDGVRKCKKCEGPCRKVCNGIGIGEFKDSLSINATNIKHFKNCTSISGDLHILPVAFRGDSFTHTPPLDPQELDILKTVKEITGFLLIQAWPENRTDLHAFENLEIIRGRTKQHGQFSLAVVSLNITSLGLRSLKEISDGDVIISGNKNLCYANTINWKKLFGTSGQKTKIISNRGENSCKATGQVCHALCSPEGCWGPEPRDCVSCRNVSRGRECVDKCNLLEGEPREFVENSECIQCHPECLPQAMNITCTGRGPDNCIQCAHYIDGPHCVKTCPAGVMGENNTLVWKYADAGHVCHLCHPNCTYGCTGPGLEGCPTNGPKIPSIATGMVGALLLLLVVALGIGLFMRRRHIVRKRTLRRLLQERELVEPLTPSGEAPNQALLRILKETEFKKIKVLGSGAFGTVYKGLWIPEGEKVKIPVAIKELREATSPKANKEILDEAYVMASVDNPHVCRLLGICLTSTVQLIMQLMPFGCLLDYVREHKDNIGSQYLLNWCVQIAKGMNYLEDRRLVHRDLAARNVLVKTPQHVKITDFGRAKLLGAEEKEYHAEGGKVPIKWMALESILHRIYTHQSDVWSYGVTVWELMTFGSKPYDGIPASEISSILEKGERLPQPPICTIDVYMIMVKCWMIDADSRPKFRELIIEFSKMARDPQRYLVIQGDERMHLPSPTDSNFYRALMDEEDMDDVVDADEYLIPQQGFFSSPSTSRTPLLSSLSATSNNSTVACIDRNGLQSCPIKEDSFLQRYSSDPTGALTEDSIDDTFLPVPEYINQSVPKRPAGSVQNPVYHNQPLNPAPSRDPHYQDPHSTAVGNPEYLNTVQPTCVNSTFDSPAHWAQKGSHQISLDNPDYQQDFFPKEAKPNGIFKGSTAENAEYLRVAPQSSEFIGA

The inhibition is the percentage by which the read-out fell short of the control. Low values mean little suppression, high ones strong suppression. As for `C=CS(=O)(=O)Nc1cccc(Nc2cc(Nc3cccc(C)c3)ncn2)c1` [I-5, N-{3-[6-(3-methylphenylamino)-pyrimidin-4-ylamino]phenyl}-ethenesulfonamide], the inhibition at 0.01 µM in [1] (@ 10 nM) was 100%. Moreover, the pIC50 in test [2] was at least 8.00; in test [4], at least 8.00; in [5], at least 8.00; in [6] it was 6.00 to 7.00; in test [8], at least 8.00. For the same compound, the inhibition at 1 µM is 86% in test [3] and 95% in [7].
As to `Cc1cccc(Nc2cc(Nc3cccc(NC(=O)/C=C/CN(C)C)c3)ncn2)c1` [I-17, (E)-N-{3-[6-(3-methylphenylamino)-pyrimidin-4-ylamino]phenyl}-4-dimethylamino-2-butenamide], the inhibition at 1 µM in test [1] (@ 1 μM) worked out at 95%; in test [3], 89%; in test [7], 94%. Further, the pIC50 in [2] is 7.00 to 8.00; in test [4] it was at least 8.00; in test [5] it was at least 8.00; in [6] it was at most 6.00; in test [8], 7.00 to 8.00.
Turning to `CN(C)C/C=C/C(=O)Nc1cccc(Nc2cc(Oc3ccc(Oc4ccccc4)cc3)ncn2)n1` [I-82], in [9], the “BTK Inhibition Type” value was “irreversible”. For the same compound, the pIC50 was at least 8.00 in [4], at least 8.00 in test [5], at least 8.00 in test [6] and 7.00 to 8.00 in test [8].
On to `C=CC(=O)Nc1ccc(Nc2cc(Nc3cccc(Br)c3)ncn2)cc1` [I-93, N-(4-[6-(3-bromophenylamino)-pyrimidin-4-ylamino]phenyl)-2-propenamide], for which the figures for the pIC50 in test [4], in test [5] and in [8] were at least 8.00, 5.00 to 6.00 and at most 5.00, respectively. In addition, the “enzyme inhibition after washout” value in [10] is recorded as “washed away”. Moreover, the “type of binding to ErbB1 (irreversible / reversible)” value in [10] (washout experiment, FIG. 2) is “reversibly binds to ErbB1”.
For the compound `CCC(=O)Nc1cccc(Nc2cc(Nc3cccc(Br)c3)ncn2)c1` [I^R-3, N-{3-[6-(3-bromophenylamino)-pyrimidin-4-ylamino]phenyl}-propionamide, reference compound], in test [10], the “enzyme inhibition after washout” value is reported as “washed away”.
